Measurements from the CheMixHub viscosity set.
± gives the uncertainty stated by the source.

Test: xn = mol fraction of the nth substance listed

COCCOCCOCCOCCOC + CC1COC(=O)O1
298.15 K, 101.33 kPa
Conditions	viscosity [mPa·s]
x1 = 0.0021	2.505 ± 0.039
x1 = 0.0047	2.51 ± 0.039
x1 = 0.0111	2.543 ± 0.04
x1 = 0.0248	2.604 ± 0.041
x1 = 0.0362	2.663 ± 0.041
x1 = 0.0516	2.716 ± 0.042
x1 = 0.0765	2.814 ± 0.044
x1 = 0.1064	2.935 ± 0.046
x1 = 0.1537	3.083 ± 0.048
x1 = 0.1752	3.145 ± 0.049
x1 = 0.2194	3.268 ± 0.05
x1 = 0.259	3.355 ± 0.052
x1 = 0.3006	3.428 ± 0.053
x1 = 0.3585	3.506 ± 0.054
x1 = 0.3967	3.56 ± 0.055
x1 = 0.4451	3.59 ± 0.055
x1 = 0.4956	3.602 ± 0.055
x1 = 0.5433	3.607 ± 0.056
x1 = 0.6081	3.609 ± 0.056
x1 = 0.6396	3.615 ± 0.056
x1 = 0.7173	3.588 ± 0.055
x1 = 0.782	3.559 ± 0.055
x1 = 0.8311	3.541 ± 0.055
x1 = 0.896	3.498 ± 0.054
x1 = 0.9403	3.466 ± 0.053

C=CC(=O)OCC + CC#N
viscosity [mPa·s], 100 kPa
Conditions	293.15 K	298.15 K	303.15 K	308.15 K	313.15 K	318.15 K
x2 = 0.0611	0.5524 ± 0.011	0.5177 ± 0.011	0.4854 ± 0.01	0.4506 ± 0.01	0.4107 ± 0.01	0.3704 ± 0.01
x2 = 0.1197	0.5374 ± 0.011	0.5035 ± 0.011	0.472 ± 0.01	0.4383 ± 0.01	0.3998 ± 0.01	0.3611 ± 0.01
x2 = 0.1852	0.5211 ± 0.011	0.4883 ± 0.01	0.4578 ± 0.01	0.4254 ± 0.01	0.3886 ± 0.01	0.3517 ± 0.01
x2 = 0.2385	0.5081 ± 0.011	0.4762 ± 0.01	0.4467 ± 0.01	0.4154 ± 0.01	0.3801 ± 0.01	0.3447 ± 0.01
x2 = 0.2966	0.4944 ± 0.01	0.4633 ± 0.01	0.4348 ± 0.01	0.4048 ± 0.01	0.3711 ± 0.01	0.3374 ± 0.01
x2 = 0.3675	0.4781 ± 0.01	0.4483 ± 0.01	0.421 ± 0.01	0.3926 ± 0.01	0.3609 ± 0.01	0.3293 ± 0.01
x2 = 0.436	0.4629 ± 0.01	0.4343 ± 0.01	0.4082 ± 0.01	0.3812 ± 0.01	0.3515 ± 0.01	0.3219 ± 0.01
x2 = 0.4982	0.4496 ± 0.01	0.4221 ± 0.01	0.3971 ± 0.01	0.3714 ± 0.01	0.3435 ± 0.01	0.3157 ± 0.01
x2 = 0.5745	0.4339 ± 0.01	0.4078 ± 0.01	0.3841 ± 0.01	0.3601 ± 0.01	0.3343 ± 0.01	0.3087 ± 0.01
x2 = 0.6519	0.4188 ± 0.01	0.394 ± 0.01	0.3717 ± 0.01	0.3493 ± 0.01	0.3257 ± 0.01	0.3024 ± 0.01
x2 = 0.725	0.4054 ± 0.01	0.3819 ± 0.01	0.3608 ± 0.01	0.34 ± 0.01	0.3185 ± 0.01	0.2973 ± 0.01
x2 = 0.8185	0.3896 ± 0.01	0.3678 ± 0.01	0.3484 ± 0.01	0.3296 ± 0.01	0.3108 ± 0.01	0.2924 ± 0.01
x2 = 0.9145	0.3751 ± 0.01	0.3552 ± 0.01	0.3378 ± 0.01	0.3213 ± 0.01	0.3054 ± 0.01	0.2901 ± 0.01

CCCCn1cc[n+](C)c1.F[P-](F)(F)(F)(F)F + CC#N
298.15 K, 101 kPa
Conditions	viscosity [mPa·s]
x2 = 0.1938	92.9 ± 24
x2 = 0.5896	8.84 ± 1

Clc1ccccc1 + CC#N
viscosity [mPa·s], 101 kPa
Conditions	298.15 K	303.15 K	308.15 K
x1 = 0.1038	–	–	0.352 ± 0.0082
x1 = 0.2009	–	–	0.3871 ± 0.0088
x1 = 0.3059	–	–	0.4245 ± 0.0095
x1 = 0.3949	–	–	0.4591 ± 0.01
x1 = 0.4943	–	–	0.4944 ± 0.011
x1 = 0.5946	–	–	0.5309 ± 0.011
x1 = 0.6984	–	–	0.5671 ± 0.012
x1 = 0.7956	–	–	0.6032 ± 0.013
x1 = 0.8961	–	–	0.6352 ± 0.013
x2 = 0.082	0.728 ± 0.008	0.65 ± 0.007	–
x2 = 0.1809	0.681 ± 0.007	0.609 ± 0.007	–
x2 = 0.267	0.642 ± 0.007	0.577 ± 0.006	–
x2 = 0.3853	0.587 ± 0.006	0.529 ± 0.006	–
x2 = 0.506	0.539 ± 0.006	0.484 ± 0.005	–
x2 = 0.5957	0.501 ± 0.005	0.459 ± 0.005	–
x2 = 0.6925	0.46 ± 0.005	0.418 ± 0.005	–
x2 = 0.8175	0.406 ± 0.005	0.373 ± 0.004	–
x2 = 0.9171	0.367 ± 0.004	0.337 ± 0.004	–

CCOP(=O)(OCC)OCC + CC(=O)N(C)C
298.15 K, 101.3 kPa
Conditions	viscosity [mPa·s]
x1 = 0.1085	0.997 ± 0.021
x1 = 0.2118	1.066 ± 0.021
x1 = 0.3173	1.133 ± 0.021
x1 = 0.4275	1.199 ± 0.021
x1 = 0.5277	1.257 ± 0.021
x1 = 0.5946	1.294 ± 0.021
x1 = 0.7173	1.36 ± 0.022
x1 = 0.8144	1.41 ± 0.022
x1 = 0.8998	1.456 ± 0.022

N#CCCCCC#N + CC(=O)N(C)C
303.15 K, 101.33 kPa
Conditions	viscosity [mPa·s]
x1 = 0.0999	0.9801 ± 0.0062
x1 = 0.2976	1.363 ± 0.0083
x1 = 0.3998	1.666 ± 0.0099
x1 = 0.4988	2.029 ± 0.012
x1 = 0.5898	2.42 ± 0.014
x1 = 0.699	2.965 ± 0.017
x1 = 0.8491	3.85 ± 0.022

CCCCn1cc[n+](C)c1.F[P-](F)(F)(F)(F)F + CC(C)=O
Conditions	viscosity [mPa·s]
298.15 K, 101 kPa, x2 = 0.1935	88.9 ± 21

COC(C)(C)C + CC(C)CC(C)(C)C
Conditions	viscosity [mPa·s]
298.15 K, 101.33 kPa, x1 = 0.125	0.4633 ± 0.0043
298.15 K, 101.33 kPa, x1 = 0.2442	0.4465 ± 0.0042
298.15 K, 101.33 kPa, x1 = 0.3612	0.4301 ± 0.0041
298.15 K, 101.33 kPa, x1 = 0.462	0.4159 ± 0.0041
298.15 K, 101.33 kPa, x1 = 0.5638	0.4012 ± 0.004
298.15 K, 101.33 kPa, x1 = 0.6579	0.3878 ± 0.0039
298.15 K, 101.33 kPa, x1 = 0.7533	0.3739 ± 0.0039
298.15 K, 101.33 kPa, x1 = 0.8375	0.3611 ± 0.0038
298.15 K, 101.33 kPa, x1 = 0.9182	0.3483 ± 0.0038
303.15 K, 101 kPa, x1 = 0.1862	0.436 ± 0.003
303.15 K, 101 kPa, x1 = 0.3104	0.423 ± 0.003
303.15 K, 101 kPa, x1 = 0.3813	0.416 ± 0.003
303.15 K, 101 kPa, x1 = 0.4961	0.404 ± 0.003
303.15 K, 101 kPa, x1 = 0.6203	0.39 ± 0.003
303.15 K, 101 kPa, x1 = 0.6609	0.386 ± 0.003
303.15 K, 101 kPa, x1 = 0.8925	0.36 ± 0.003

Clc1ccccc1 + CC(C)CO
viscosity [mPa·s], 101.33 kPa
Conditions	x1 = 0.101	x1 = 0.2015	x1 = 0.2966	x1 = 0.4019	x1 = 0.4952	x1 = 0.5979	x1 = 0.6965	x1 = 0.8009	x1 = 0.8977
298.15 K	2.558 ± 0.02	1.975 ± 0.015	1.593 ± 0.013	1.301 ± 0.011	1.124 ± 0.0093	0.9772 ± 0.0082	0.8803 ± 0.0075	0.8094 ± 0.007	0.7666 ± 0.0067
313.15 K	1.663 ± 0.013	1.336 ± 0.011	1.128 ± 0.0093	0.9531 ± 0.0081	0.8497 ± 0.0073	0.7614 ± 0.0067	0.7035 ± 0.0062	0.6586 ± 0.0059	0.633 ± 0.0057

COC(C)(C)C + CC(C)O
101 kPa
Conditions	viscosity [mPa·s]
293.15 K, x1 = 0.0305	2.145 ± 0.088
298.15 K, x1 = 0.0702	1.595 ± 0.065
303.15 K, x1 = 0.0702	1.395 ± 0.057
308.15 K, x1 = 0.0914	1.145 ± 0.047

COCCOCCOCCOCCOC + CC(C)O
viscosity [mPa·s], 101 kPa
Conditions	x1 = 0.0021	x1 = 0.0042	x1 = 0.00994	x1 = 0.014	x1 = 0.0152	x1 = 0.025	x1 = 0.0355	x1 = 0.0719	x1 = 0.0734	x1 = 0.0994
298.15 K	2.074 ± 0.033	2.059 ± 0.032	2.022 ± 0.032	1.999 ± 0.031	1.996 ± 0.035	1.934 ± 0.03	1.941 ± 0.031	1.86 ± 0.03	1.883 ± 0.032	1.83 ± 0.029
308.15 K	1.555 ± 0.025	1.549 ± 0.025	1.53 ± 0.025	1.52 ± 0.024	1.52 ± 0.027	1.512 ± 0.024	1.484 ± 0.024	1.465 ± 0.024	1.489 ± 0.026	1.444 ± 0.023
318.15 K	1.188 ± 0.02	1.185 ± 0.019	1.179 ± 0.019	1.177 ± 0.019	1.18 ± 0.019	1.18 ± 0.019	1.172 ± 0.019	1.163 ± 0.019	1.167 ± 0.019	1.159 ± 0.019
